Data as given in US20080206311A1, “Sucrase Activity Inhibitor, Glucoamylase Activity Inhibitor and Food and Feed Containing the Same” (MITSUI SUGAR CO., LTD., priority 2005, published 2008).
Each block holds one molecule with its values, some of them ahead of it.

Experiments:
sucrase = molecular target: T1, sucrase (Rattus norvegicus, UniProt P23739); assay: Sucrase activity inhibition with rat small-intestinal enzyme liquid, substrate sucrose; assay type: biochemical
T1 construct: This liquid contained a mixture of enzymes present in small intestine, such as sucrose, glucoamylase, maltase, and isomaltase; tissue Sigma Corporation; host or cells: rat small intestine (acetone powder), buffer extract, unpurified
T1 sequence (P23739 whole entry): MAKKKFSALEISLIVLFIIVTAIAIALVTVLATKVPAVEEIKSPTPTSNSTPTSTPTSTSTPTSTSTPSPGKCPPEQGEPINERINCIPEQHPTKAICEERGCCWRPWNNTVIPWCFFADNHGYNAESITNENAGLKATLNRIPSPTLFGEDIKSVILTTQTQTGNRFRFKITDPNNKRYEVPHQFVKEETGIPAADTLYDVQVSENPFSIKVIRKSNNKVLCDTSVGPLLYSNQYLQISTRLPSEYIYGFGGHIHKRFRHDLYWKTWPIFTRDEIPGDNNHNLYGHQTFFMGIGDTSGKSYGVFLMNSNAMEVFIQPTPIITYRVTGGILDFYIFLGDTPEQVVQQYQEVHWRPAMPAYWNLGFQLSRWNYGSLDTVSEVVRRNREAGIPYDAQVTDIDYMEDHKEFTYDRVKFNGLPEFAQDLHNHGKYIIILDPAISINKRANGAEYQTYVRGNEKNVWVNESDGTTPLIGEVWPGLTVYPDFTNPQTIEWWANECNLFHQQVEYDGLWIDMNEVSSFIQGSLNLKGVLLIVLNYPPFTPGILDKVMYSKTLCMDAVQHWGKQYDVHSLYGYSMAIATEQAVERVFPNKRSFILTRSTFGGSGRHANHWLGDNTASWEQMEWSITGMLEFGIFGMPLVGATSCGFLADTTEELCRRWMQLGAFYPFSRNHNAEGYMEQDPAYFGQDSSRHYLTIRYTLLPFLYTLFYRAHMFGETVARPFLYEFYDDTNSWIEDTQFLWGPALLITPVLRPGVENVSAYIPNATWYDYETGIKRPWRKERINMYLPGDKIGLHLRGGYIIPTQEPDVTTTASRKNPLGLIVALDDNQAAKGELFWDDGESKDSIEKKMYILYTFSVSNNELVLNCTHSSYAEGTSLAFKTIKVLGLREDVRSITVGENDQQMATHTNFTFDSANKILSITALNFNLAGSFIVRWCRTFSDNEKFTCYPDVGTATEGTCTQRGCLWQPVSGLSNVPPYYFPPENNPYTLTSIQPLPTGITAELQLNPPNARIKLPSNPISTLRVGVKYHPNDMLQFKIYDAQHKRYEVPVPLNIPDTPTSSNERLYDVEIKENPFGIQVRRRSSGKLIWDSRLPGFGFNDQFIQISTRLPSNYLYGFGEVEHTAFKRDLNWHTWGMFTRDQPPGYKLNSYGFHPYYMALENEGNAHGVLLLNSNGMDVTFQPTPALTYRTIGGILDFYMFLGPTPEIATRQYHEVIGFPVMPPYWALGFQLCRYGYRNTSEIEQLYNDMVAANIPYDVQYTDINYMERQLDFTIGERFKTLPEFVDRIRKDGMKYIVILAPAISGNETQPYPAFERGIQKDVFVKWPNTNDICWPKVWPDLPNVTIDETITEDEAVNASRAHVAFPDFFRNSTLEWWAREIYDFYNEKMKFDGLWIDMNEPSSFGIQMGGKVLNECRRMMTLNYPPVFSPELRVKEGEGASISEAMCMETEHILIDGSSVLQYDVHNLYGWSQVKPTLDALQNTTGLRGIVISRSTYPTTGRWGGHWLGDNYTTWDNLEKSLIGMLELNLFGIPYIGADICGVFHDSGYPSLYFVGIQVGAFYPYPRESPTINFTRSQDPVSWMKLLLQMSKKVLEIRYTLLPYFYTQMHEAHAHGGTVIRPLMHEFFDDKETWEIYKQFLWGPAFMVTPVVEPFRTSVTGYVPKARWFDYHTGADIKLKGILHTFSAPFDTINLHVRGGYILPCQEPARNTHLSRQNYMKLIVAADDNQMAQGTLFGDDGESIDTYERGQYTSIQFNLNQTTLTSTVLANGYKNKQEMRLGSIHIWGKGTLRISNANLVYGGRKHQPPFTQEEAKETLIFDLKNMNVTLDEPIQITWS
Experimental: (§1) Palatinose (trade name: Palatinose IC, ex Shin Mitsui Sugar Co., Ltd.) (test sample) was used as a sample for investigating each enzyme activity inhibitory effect. Maltose and sucrose were used as substrates for maltase and sucrose, respectively. The test sample and the substrates were dissolved in 0.1 M phosphate buffer (pH 6.8) at the concentration shown in Table 1 below to prepare test solutions (Solutions 4 and 5). Also, the test sample or the substrates were dissolved in 0.1 M phosphate buffer (pH 6.8), respectively to at the concentration shown in Table 1 below to prepare control solutions (Solution 1 for the test sample and Solutions 2 and 3 for the substrates).
(§2) Two grams of rat small-intestinal acetone powder (ex Sigma Corporation) were dissolved in 20 ml of 0.1 M phosphate buffer (pH 6.8), left standing one day at 5° C., and subsequently subjected to centrifugal separation (8000 rpm×15 min.). The supernatant was filtered through a 0.8 μm membrane filter to obtain a small-intestinal enzyme liquid. This liquid contained a mixture of enzymes present in small intestine, such as sucrose, glucoamylase, maltase, and isomaltase.
(§3) Each 0.25 ml of the small-intestinal enzyme liquid was added to each 5 ml of Solutions 1 through 5 and placed in a water bath at 37° C. to allow them to react for 60 min. while shaken at 60 strokes/min. After the reaction, they were heated in a boiling water bath for 3 min. for inactivation of the enzymes.
(§4) The glucose concentration in each solution after the reaction was measured using the F-kit Glucose (ex Roche). A liberated glucose concentration (g/l) was calculated by subtracting the blank value (0.1 M phosphate buffer alone) and the concentration of glucose originally contained in the test sample from each glucose concentration measured.
(§5) Next, each of the liberated glucose concentration was input in the following equation to obtain decomposition inhibition ratio for maltase and sucrose. In the present tests, the substrates and the inhibitors were decomposed by enzymes present in the small-intestinal enzyme liquid. However, the enzymes decomposing the substrates are different from the enzymes decomposing the inhibitors. The decomposition inhibition ratio was determined as a measure for the inhibitory effect. When the inhibitor was added, the glucose concentration was lower than that seen when the substrate alone was reacted. A higher decomposition inhibition ratio means a stronger inhibitory effect.
(§6) Decomposition inhibition ratio,%={(A+B)−(AB)}+(A+B)×100 [Equation 1]
(§7) wherein (A+B) indicates a sum of a liberated glucose concentration in the control solution containing the test sample alone after the reaction (A) and a liberated glucose concentration in the control solution containing the substrate alone after the reaction (B); and (AB) indicates a liberated glucose concentration in the test solution containing the test sample (A) and the substrate (B), after the reaction.
The procedures in Example 1 were repeated with the exception that the test solutions contained 5% of sucrose and 0.5%, 1.0%, 3.0% or 5.0% of palatinose to examine intensity of the sucrose activity inhibition. A control solution contained 5% of sucrose in 0.1 M phosphate buffer (pH 6.8).
The procedures in Example 1 were repeated with the exception that palatinit and palatinose were used as test samples and sucrose was used as a substrate. The test samples and the substrate were dissolved in 0.1 M phosphate buffer (pH 6.8) to attain the concentration shown in Table 3 to thereby prepare two test solutions. Besides, each one of the test samples or the substrate was dissolved in 0.1 M phosphate buffer (pH 6.8) to attain the concentration shown in Table 3 to thereby prepare control solutions. Each 5 ml of the aforementioned test solutions or the control solutions was subjected to the enzymatic reaction according to the same procedures as in Example 1. The glucose concentration and the fructose concentration were measured. […]

lactase = molecular target: T2, lactase (Rattus norvegicus, UniProt Q02401); assay: Lactase activity inhibition with rat small-intestinal enzyme liquid, substrate lactose; assay type: biochemical; details: 5% lactose + 5% test sample
T2 construct: tissue Sigma Corporation; host or cells: rat small intestine (acetone powder), buffer extract, unpurified
T2 sequence (Q02401 868-1928): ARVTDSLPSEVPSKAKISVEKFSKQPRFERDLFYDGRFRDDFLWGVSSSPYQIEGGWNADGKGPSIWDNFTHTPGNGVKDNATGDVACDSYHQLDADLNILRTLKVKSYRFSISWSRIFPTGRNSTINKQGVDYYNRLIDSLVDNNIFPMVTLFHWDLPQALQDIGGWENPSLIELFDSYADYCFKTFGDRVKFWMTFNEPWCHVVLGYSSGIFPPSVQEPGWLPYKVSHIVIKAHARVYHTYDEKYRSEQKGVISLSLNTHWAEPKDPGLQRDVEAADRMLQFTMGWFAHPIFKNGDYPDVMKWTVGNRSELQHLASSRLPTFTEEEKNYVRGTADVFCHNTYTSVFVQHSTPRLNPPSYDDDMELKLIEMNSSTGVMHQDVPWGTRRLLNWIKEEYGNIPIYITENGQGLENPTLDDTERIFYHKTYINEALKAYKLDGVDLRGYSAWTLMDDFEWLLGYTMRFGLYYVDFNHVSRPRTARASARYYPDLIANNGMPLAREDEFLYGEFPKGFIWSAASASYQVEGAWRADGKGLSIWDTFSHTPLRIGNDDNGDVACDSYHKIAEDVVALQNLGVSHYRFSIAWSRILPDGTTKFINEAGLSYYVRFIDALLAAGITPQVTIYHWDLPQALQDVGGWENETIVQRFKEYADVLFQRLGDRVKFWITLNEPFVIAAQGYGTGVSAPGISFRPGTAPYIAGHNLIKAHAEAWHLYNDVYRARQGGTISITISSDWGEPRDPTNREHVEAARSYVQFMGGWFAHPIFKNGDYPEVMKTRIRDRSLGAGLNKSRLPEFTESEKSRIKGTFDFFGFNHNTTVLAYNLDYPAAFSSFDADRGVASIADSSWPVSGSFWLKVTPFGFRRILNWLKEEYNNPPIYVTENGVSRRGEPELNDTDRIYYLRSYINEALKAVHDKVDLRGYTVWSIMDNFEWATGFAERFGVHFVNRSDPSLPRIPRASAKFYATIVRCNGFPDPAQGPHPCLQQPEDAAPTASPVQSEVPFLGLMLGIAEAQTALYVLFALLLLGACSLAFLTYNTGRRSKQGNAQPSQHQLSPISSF
Experimental: as §2, §3, §4, §5, §6, §7
(§8) The procedures in Example 1 were repeated with the exception that palatinit, palatinose or isomaltose was used as a test sample and lactose was used as a substrate. The test samples and the substrate were dissolved in 0.1 M phosphate buffer (pH 6.8) to attain the concentration shown in Table 5 to thereby prepare three test solutions. Besides, each of the test samples or the substrate was dissolved in 0.1 M phosphate buffer (pH 6.8) to attain the concentration shown in Table 5 to thereby prepare control solutions. Each 5 ml of the aforementioned test solutions and the control solutions was subjected to the enzymatic reaction according to the same procedures as in Example 1. The glucose concentration, the fructose concentration and the galactose concentration were measured. The galactose concentration was measured using F-kit Galactose (ex Roche). The liberated galactose concentration, g/l, was calculated by subtracting the blank value (0.1 M phosphate buffer alone) from the measured galactose concentration.

[1] = tested on: small-intestinal enzyme liquid; assay: Decomposition of a saccharide alone (control solution) by small-intestinal enzyme liquid; assay type: biochemical, rat; details: 5% saccharide alone; for Liberated galactose concentration: Test Example 3
Experimental: as §1, §2, §3, §4
The fructose concentration was measured using the F-kit Fructose (ex Roche). The liberated fructose concentration, g/l, was obtained by subtracting the blank value (0.1 M phosphate buffer alone) from the resultant fructose concentration.
as §8

glucoamylase = assay: Glucoamylase activity inhibition with rat small-intestinal enzyme liquid, substrate soluble starch; assay type: biochemical; details: 5% soluble starch + 5% test sample
Experimental: as §2, §3, §4, §5, §6, §7
The procedures in Example 1 were repeated with the exception that palatinose and palatinit were used as a test sample and soluble starch was used as a substrate. The test samples and the substrate were dissolved in 0.1 M phosphate buffer (pH 6.8) to attain the concentration shown in Table 6 to thereby prepare two test solutions. Besides, each of the test samples or the substrate was dissolved in 0.1 M phosphate buffer (pH 6.8) to attain the concentration shown in Table 6 to thereby prepare control solutions. Each 5 ml of the aforementioned test solutions and the control solutions was subjected to the enzymatic reaction according to the same procedures as in Example 1 and the liberated glucose concentration and the decomposition inhibition ratio were measured.
The procedures in Example 1 were repeated with the exception that trehalulose was used as a test sample and soluble starch was used as a substrate. The test sample and the substrate were dissolved in 0.1 M phosphate buffer (pH 6.8) to attain the concentration shown in Table 9 to thereby prepare a test solution. Besides, the test sample or the substrate was dissolved in 0.1 M phosphate buffer (pH 6.8) to attain the concentration shown in Table 9 to thereby prepare control solutions. Each 5 ml of the aforementioned test solution and the control solutions was subjected to the enzymatic reaction according to the same procedures as in Example 1 and the liberated glucose concentration and the decomposition inhibition ratio were measured.
The procedures in Example 1 were repeated with the exception that trehalose was used as a test sample and soluble starch was used as a substrate. […]

[2] = 5% sucrose + 5% test sample, Example 3 / Test Example 2
[3] = 5% sucrose + 5% test sample, Example 5 / Test Example 4

Molecule: OC[C@H]1O[C@H](OC[C@H]2OC(O)[C@H](O)[C@@H](O)[C@@H]2O)[C@H](O)[C@@H](O)[C@@H]1O (stereo partly drawn) [isomaltose, reference compound]
Total concentration of liberated monosaccharides (glucose + fructose) (sucrase; 5% sucrose + 5% isomaltose): 2.88 g/L | Sucrase activity inhibitory effect (in words) (sucrase; 5% sucrose + 5% test sample): has a sucrose activity inhibitory effect | Decomposition inhibition ratio, %, against sucrase (sucrase; [2]): 31% | Liberated fructose concentration (sucrase; [2]): 0.70 g/L | Liberated glucose concentration (sucrase; [2]): 2.18 g/L | Decomposition inhibition ratio, %, against lactase (lactase): −1% | Lactase activity inhibitory effect (in words) (lactase): no lactose inhibitory effect was appreciable | Liberated fructose concentration (lactase): 0.00 g/L | Liberated galactose concentration (lactase): 0.06 g/L | Liberated glucose concentration (lactase): 2.41 g/L | Liberated fructose concentration ([1]; Example 3 / Test Examples 2, 3): 0.02 g/L | Liberated glucose concentration ([1]; Example 3 / Test Examples 2, 3): 2.14 g/L | Liberated galactose concentration [1]: 0.00 g/L

Molecule: OC[C@H]1O[C@@H](O[C@H]2[C@H](O)[C@@H](O)C(O)O[C@@H]2CO)[C@H](O)[C@@H](O)[C@H]1O (stereo partly drawn) [lactose]
Liberated fructose concentration ([1]; Example 3 / Test Examples 2, 3): 0.00 g/L | Liberated glucose concentration ([1]; Example 3 / Test Examples 2, 3): 0.23 g/L | Liberated galactose concentration [1]: 0.16 g/L

Molecule: OC[C@H]1O[C@H](O[C@H]2O[C@H](CO)[C@@H](O)[C@H](O)[C@H]2O)[C@H](O)[C@@H](O)[C@@H]1O [trehalose, reference compound]
Sucrase activity inhibitory effect (in words) (sucrase; 5% sucrose + 5% test sample): substantially no sucrose activity inhibitory effect | Decomposition inhibition ratio, %, against sucrase (sucrase; [3]): 49% | Liberated glucose concentration (sucrase; [3]): 1.683 g/L | Glucoamylase activity inhibitory effect (in words) (glucoamylase): has a glucoamylase activity inhibitory effect, but the effect is very weak | Decomposition inhibition ratio, %, against glucoamylase (glucoamylase; Example 6 / Test Example 5): 14% | Liberated glucose concentration (glucoamylase; Example 6 / Test Example 5): 2.349 g/L | Liberated glucose concentration ([1]; Example 5 / Test Example 4, sucrase activity inhibition test): 1.656 g/L | Liberated glucose concentration ([1]; Example 6 / Test Example 5, glucoamylase activity inhibition test): 0.333 g/L

Now from value to molecule:

Liberated glucose concentration ([1]; 37° C., 60 min, pH 6.8, Example 1 / Test Example 1): 4.956 ± 0.423 g/L
Molecule: OC[C@H]1O[C@H](O[C@H]2[C@H](O)[C@@H](O)[C@H](O)O[C@@H]2CO)[C@H](O)[C@@H](O)[C@@H]1O [maltose]

Liberated glucose concentration ([1]; Example 4): 4.657 g/L | Liberated glucose concentration ([1]; Example 6 / Test Example 5): 2.400 g/L
Molecule: soluble starch
